Experimental findings from US20240299379A1, “COMPOSITIONS OF CLOFAZIMINE AND AMIKACIN FOR PULMONARY ADMINISTRATION IN THE TREATMENT OF RESPIRATORY DISEASES” (BOARD OF REGENTS, THE UNIVERSITY OF TEXAS SYSTEM, priority 2021, published 2024) are described below.

Data set [1] is described as follows: Aerosol performance of clofazimine and amikacin co-administered from dual chamber Dualhaler DPI, Next Generation Impactor. Format: physicochemical. The following applies: Dualhaler device.
Data set [2] is described as follows: Aerosol performance of physical blends, Next Generation Impactor, medium resistance RS01 DPI. The data set is classed as physicochemical. The note with it: RS01 device. As to the method:
(§1) The aerosol performance of the physically blended mixtures was determined using cascade impaction, specifically as Next Generation Impactor, as prescribed by the United States Pharmacopeia chapter 601. For these studies, a medium resistance Model 7 RS01 dry powder inhaler (DPI) manufactured by Berry Global Osnago was utilized. 20 mg of the physical blends (1:0.5 CFZ-AMK, 1:2 CFZ-AMK, 1:4 CFZ-AMK, or 1:8 CFZ-AMK) or 10 mg of air jet milled clofazimine or air jet milled amikacin sulfate alone was loaded into a size 3 hydroxypropyl methylcellulose (HPMC) capsule. The device was actuated at an airflow rate to induce a 4 kPa pressure drop (i.e., 80 L/min) or 2 kPa pressure drop (i.e., 56.6 L/min) through the device for period of time sufficient to draw 4 L of air through the apparatus. To reduce particle bounce and re-entrainment, the NGI plates were coated with 1% (v/v) glycerin in ethanol and allowed to dry prior to performing the experiment. After actuation, powder was collected from the capsule, device, induction port, and stages of the Next Generation Impactor by adding a volume of 75/25 acetonitrile/water containing 0.16 mg/mL polysorbate 80 that was sufficient to dissolve the deposited powder. Phase separation of the solution into an organic phase containing clofazimine and an aqueous phase containing amikacin was induced by adding a volume of 5 M ammonium acetate equivalent to 16.7% of the original solution volume. The organic and aqueous phases were analyzed using high pressure liquid chromatography and concentration of each drug was quantified using a previously prepared standard curve.
(§2) Stage 1-7 cut-off diameters were determined using equation 1 and MOC cut-off diameters were determined using equation 2.
(§3) where D50,Q is the cutoff diameter at the flow rate, Q, and the subscript, n, refers to the archival reference value for Qn=60 L/min, and the values for the exponent, x, were determined by the archival NGI stage cut size-flow rate calculations, as determined by Marple et al.
(§4) The emitted fraction (EF) was calculated as the total drug emitted from the device as a percentage of the total mass of drug collected (i.e., recovered dose). The respirable fraction that was less than 5 μm aerodynamic diameter and less than 3 μm aerodynamic diameter corresponded to the percentage of the recovered dose predicted to have the aerodynamic diameter below 5 μm and 3 μm. The respirable fraction values were interpolated from a graph with the cumulative percentage of the emitted dose deposited downstream from an NGI stage as the ordinate and the particle cutoff size of that stage as the abscissa. For each sample, the mass median aerodynamic diameter (MMAD), which represents the mass-based median point of the aerodynamic particle size distribution (APSD), and geometric standard deviation (GSD), which represents the spread of the APSD, were determined by plotting the cumulative percentage of mass less than the stated aerodynamic size cut (expressed as Probits) against the aerodynamic diameter (log scale). Distributions were log normal. A linear regression was performed to determine the aerodynamic diameters corresponding to the 50% percentile (Probit 5) to determine the MMAD, and the aerodynamic diameters corresponding the 15.87% percentile (Probit 4) and 84.13% percentile (Probit 6) to calculate the GSD. The results of this analysis are shown in Table 5-8 and FIG. 2, and are presented as mean±standard deviation (n=3)

The test system of data set [3] is Mab-infected THP-1 macrophages. The data set is described as follows: In vitro efficacy study, micronized CFZ particles added to media containing AMK. Format: cell-based, Mycobacterium abscessus (Mab).
Data set [4] is described as follows: Aerosol performance of composite spray dried particles, Next Generation Impactor, medium resistance RS01 DPI. Format: physicochemical. The following applies: spray dried powder, RS01 device. On the procedure: as §1, with “the composite spray dried particles” for “the physically blended mixtures”, “the spray dried powders (1:2” for “the physical blends (1:0.5 CFZ-AMK, 1:2”, “or spray dried” for “or air jet milled”, “capsule. For these studies, spray dried clofazimine was not tested due to the extremely low powder yield and the tendency of the particles to dry as large needle structures.” for “capsule.”
as §2, §3
as §4, with “Tables 11-14” for “Table 5-8”, “11,” for “2,”

Data set [5] can be described thus: Geometric particle size distribution by laser diffraction (Sympatec HELOS, RODOS dry dispersion). Format: physicochemical. The following applies: micronized with Model 00 Jet-O-Mizer Air Jet Mill. On the procedure:
PSD was calculated using Fraunhofer theory using the Sympatec laser diffractor. […] Measurements were taken every 5 msec […] following powder dispersion. Measurements that were between 5-25% optical density were averaged to determine particle size distribution. Data was analyzed using HELOS software version 5.6.0.0 with an HRLD model to convert the scattering pattern to a particle size distribution.

Where [6] appears, read: 2 kPa pressure drop, amikacin component (Table 17).
The mark [7] stands for this setting: 4 kPa pressure drop, amikacin component.
The mark [8] stands for this setting: 2 kPa pressure drop, amikacin component (Table 7).
Setting [9] is: 2 kPa pressure drop, amikacin component as titled (Table 18, reference Jet milled CFZ alone).
[10] abbreviates: 4 kPa pressure drop, clofazimine component.
Where [11] appears, read: 2 kPa pressure drop, amikacin component as titled (Table 8, reference Jet milled CFZ alone).
Where [12] appears, read: 2 kPa pressure drop, clofazimine component.
[13] abbreviates: 4 kPa pressure drop, clofazimine component (Table 12).
Setting [14] is: 4 kPa pressure drop, clofazimine component as titled (Table 13, reference Spray dried AMK-S alone).

Structures can show the parent of a compound that is named as a salt.

Take `NCC[C@H](O)C(=O)NC1C[C@H](N)[C@@H](O[C@H]2O[C@H](CN)[C@H](O)[C@H](O)[C@H]2O)[C@H](O)[C@H]1O[C@H]1O[C@H](CO)[C@@H](O)[C@H](N)[C@H]1O` (stereo partly drawn) [Jet milled AMK-S alone, (2S)-4-amino-N-[(2S,3S,4R,5S)-5-amino-2-[(2S,3R,4S,5S,6R)-4-amino-3,5-dihydroxy-6-(hydroxymethyl)oxan-2-yl]oxy-4-[(2R,3R,4S,5R,6R)-6-(aminomethyl)-3,4,5-trihydroxy-oxan-2-yl]oxy-3-hydroxy-cyclohexyl]-2-hydroxybutanamide]: in data set [1] (setting [6]), the “EF (emitted fraction)” value is reported as 14.1 ± 23.7%, the “RF < 3 μm” value stood at 15.5 ± 2.4% and the “RF < 5 μm” value came to 23.4 ± 4.6%. In data set [1] (setting [7]), the “EF (emitted fraction)” value worked out at 47.8 ± 13.8%, the “RF < 3 μm” value is on record as 22.6 ± 1.4% and the “RF < 5 μm” value is given as 28.6 ± 1.5%. Besides, in data set [2] (setting [8]), the “EF (emitted fraction)” value is 77.2 ± 11.2%, the MMAD worked out at 8.23 ± 0.57 μm, the “RF < 3 μm” value is 30.4 ± 3.4% and the “RF < 5 μm” value is 48.3 ± 3.8%. Further, in data set [2] (setting [7]), the “EF (emitted fraction)” value came out at 82.1 ± 1.2%, the MMAD is reported as 9.07 ± 1.76 μm, the “RF < 3 μm” value amounted to 28.2 ± 4.9% and the “RF < 5 μm” value is recorded as 40.8 ± 7.2%.
As for `CC(C)N=c1cc2n(-c3ccc(Cl)cc3)c3ccccc3nc-2cc1Nc1ccc(Cl)cc1` [Jet milled CFZ alone, N,5-bis(4-chlorophenyl)-3-(1-methylethylimino)-5H-phenazin-2-amine], the “EF (emitted fraction)” value is reported as 41.2 ± 4.1% in data set [1] (setting [9]); 44.9 ± 16.1% in data set [1] (setting [10]); 80.7 ± 9.7% in data set [2] (setting [11]); 76.2 ± 4.1% in data set [2] (setting [10]); 80.7 ± 9.7% in data set [4] (setting [12]); 76.2 ± 4.1% in data set [4] (setting [13]). Further, the “RF < 3 μm” value came out at 19.8 ± 2.2% in data set [1] (setting [9]); 25.1 ± 10.9% in data set [1] (setting [10]); 37.5 ± 18.2% in data set [2] (setting [11]); 47.4 ± 3.7% in data set [2] (setting [10]); 37.5 ± 18.2% in data set [4] (setting [12]); 47.4 ± 3.7% in data set [4] (setting [13]). Further, the “RF < 5 μm” value in data set [1] (setting [9]) is 26.1 ± 3.1%; in data set [1] (setting [10]), 30.8 ± 12.6%; in data set [2] (setting [11]), 51.0 ± 19.0%; in data set [2] (setting [10]) it was 58.8 ± 4.7%; in data set [4] (setting [12]) it was 51.0 ± 19.0%; in data set [4] (setting [13]), 58.8 ± 4.7%. Moreover, in data set [3] (increasing doses of micronized CFZ), the “Intracellular drug accumulation with increasing doses” value is “notable increase in intracellular drug accumulation”. For the same compound, the “Change in intracellular bacterial burden with increasing doses” value in data set [3] (increasing doses of micronized CFZ, with AMK) is given as “no statistically significant changes”. In data set [3] (micronized CFZ particles added to media containing 40 μg/mL AMK), the “Intracellular Mab bacilli compared to the use of AMK alone” value is on record as “statistically significant reduction”. The MMAD in data set [2] (setting [11]) stood at 10.08 ± 7.79 μm; in data set [2] (setting [10]), 5.36 ± 0.53 μm; in data set [4] (setting [12]) it was 10.08 ± 7.79 μm; in data set [4] (setting [13]) it was 5.36 ± 0.53 μm.
In data set [5], `NCC[C@H](O)C(=O)NC1C[C@H](N)[C@@H](O[C@H]2O[C@H](CN)[C@H](O)[C@H](O)[C@H]2O)[C@H](O)[C@H]1O[C@H]1O[C@H](CO)[C@@H](O)[C@H](N)[C@H]1O` (stereo partly drawn) [AMK sulfate, (2S)-4-amino-N-[(2S,3S,4R,5S)-5-amino-2-[(2S,3R,4S,5S,6R)-4-amino-3,5-dihydroxy-6-(hydroxymethyl)oxan-2-yl]oxy-4-[(2R,3R,4S,5R,6R)-6-(aminomethyl)-3,4,5-trihydroxy-oxan-2-yl]oxy-3-hydroxy-cyclohexyl]-2-hydroxybutanamide] returned an X50 particle diameter of 4.04 μm and an X90 particle diameter of 7.72 μm.
As to `NCC[C@H](O)C(=O)NC1C[C@H](N)[C@@H](O[C@H]2O[C@H](CN)[C@H](O)[C@H](O)[C@H]2O)[C@H](O)[C@H]1O[C@H]1O[C@H](CO)[C@@H](O)[C@H](N)[C@H]1O` (stereo partly drawn) [Spray dried AMK-S alone, (2S)-4-amino-N-[(2S,3S,4R,5S)-5-amino-2-[(2S,3R,4S,5S,6R)-4-amino-3,5-dihydroxy-6-(hydroxymethyl)oxan-2-yl]oxy-4-[(2R,3R,4S,5R,6R)-6-(aminomethyl)-3,4,5-trihydroxy-oxan-2-yl]oxy-3-hydroxy-cyclohexyl]-2-hydroxybutanamide], in data set [4] (setting [7]), the “EF (emitted fraction)” value worked out at 61.9 ± 8.6%, the MMAD is 6.23 ± 0.97 μm, the “RF < 3 μm” value turned out to be 44.5 ± 3.6% and the “RF < 5 μm” value stood at 50.8 ± 5.8%. In data set [4] (setting [14]), the “EF (emitted fraction)” value was determined as 43.3 ± 8.7%, the MMAD came out at 11.29 ± 2.93 μm, the “RF < 3 μm” value worked out at 31.8 ± 6.9% and the “RF < 5 μm” value is 37.6 ± 6.2%.
